Legend:
[1] = system: PB2452 binding to biotinylated ticagrelor; assay: Selectivity of PB2452 by competition binding with PB2452 to biotinylated ticagrelor; design: species or system human
Description: The chemical starting point for the development of ticagrelor was adenosine triphosphate (ATP), and ticagrelor retains an adenosine-like core.

[2] = system: P2Y12 reactivity units (PRU); assay: animal or person
Description: where Base refers to the baseline (prior to administration of Ticagrelor) value. Emaxi, EC50i, and the Hill coefficient (γ) are parameters to be estimated. The same structural model was used for PRU, VASP, and LTA.
The Emax parameter relating TICA to PRU (as well as VASP and LTA) was fixed to 90%. […] It is anticipated that this parameter value would be large^13 so it was fixed at a large value. […] This value was chosen based on literature^9, 14. Finally, fm was set equal to 0.30.
For parameters that were to be estimated, most of the prior distributions were uninformative or weakly informative.

[3] = Final population PK/PD model: PK parameters of TICA, TAM, PB2452 and complexes; format: in vivo, human
Method: A diagram of the model considered is in FIG. 1. Ticagrelor is dosed orally and passes through 2 transit compartments prior to entering the central compartment. […] PB2452 is dosed IV, and directly enters the central compartment. PB2452 can also diffuse into a peripheral compartment. […] In the model, it is assumed that the complexes are cleared at the same rate as PB2452. Additional compartments for the complex to enter where TICA and TAM return to circulation while PB2452 is removed from the system is also included in the model.
The expected result would be an increase in PRI/LTA/VASP to baseline (pre-ticagrelor administration) levels. Baseline PRU/LTA/VASP were added in the models observed value from the data for each subject. An ETA term was added to allow for potential measurement error. […] Astrand et al. (2019).
(§1) The PK parameters associated with this model are in Table 2. […] In the PK/PD model, the parameters associated with the PK of PB2452 (that are not associated with the relationship between PB2452/TICA/TAM) were fixed to these values.
(§2) To achieve improved fit to the study data, multiple adjustments were made to the model. […] These updates led to significant improvements in the fit of the model to the data.
The final step in model development was addition of significant covariates. […] Based on the covariate plots for the final model with the covariates included, no other covariates were added.

[4] = system: P2Y12 reactivity units (PRU); details: fixed in model, not estimated; cited from earlier work
[5] = system: metabolism of TICA to TAM; assay: Final population PK/PD model: metabolism of TICA as a function of PB2452 concentration; format: in vivo, human; details: value is natural log of Emaxf
Description: as §2

[6] = system: P2Y12 receptor-induced platelet aggregation and P2Y12 receptor signaling; assay: Phase 1 trial: reversal of the antiplatelet effects of ticagrelor (PRU/LTA/VASP); format: in vivo, human
Method: This model was developed during the conduct of the first-in-human study and used to inform dosing decisions throughout the study. The model was then updated with final data from the trial and will be used to inform subsequent early-phase clinical trials being conducted.
The study had 10 cohorts of healthy volunteers.
Subjects in Cohorts 4-10 were pretreated with ticagrelor for 48 hours. The first dose of ticagrelor was an oral loading dose of 180 mg followed by 90 mg administered orally twice daily for 2 days.

[7] = read-out: Kd (affinity of PB2452 for TICA and TAM); fixed in model, chosen based on literature; cited from earlier work
[8] = Population PK model of PB2452 alone (two-compartment, Cohorts 1-3); format: in vivo, human
Method: Population PK and PK/PD analyses were carried out using NONMEM version 7.4, PDx-Pop version 5.2 and Intel Visual Fortran Compiler version 12 on Microsoft Windows 10 Professional.
The models described in the following sections are non-linear hierarchical models that were fit using Bayesian Markov Chain Monte-Carlo (MCMC) techniques. If θ and φj represent vectors of individual PK and PD parameters, respectively, then it was assumed that they follow distributions with population parameters Θ and Φ, respectively. The parameters Θ and Φ were then assigned prior distributions according to the prior information available. The Bayesian analysis involved the estimation of the joint distribution of all parameters conditional on the observed data: p(θ, φ, Θ, Φ|PK and PD data), where θ and φ denote collections of all individual specific PK and PD parameters, respectively. Generating random samples from the joint posterior distribution allows the marginal distribution of each parameter to be completely characterized. More details on Bayesian methods in general may be found in (Lunn, Best, Thomas, Wakefield, & Spiegelhalter, 2002).
The MU referencing technique was utilized in NONMEM (Bauer, 2019). In particular, MU_1 (for example) was set equal to THETA(1). Then a particular model parameter was set equal to EXP(MU_1+ETA(1)). So, THETA represents the population value of the parameter on the log-scale. This usually helps to improve the efficiency (speed of convergence, reduced autocorrelation) of the algorithms (MCMC, but also applies to other “advanced” algorithms available) utilized.
as §1

[9] = 6 g IV bolus, then 6 g over 4 h, then 6 g over 12 h, study subjects pretreated with ticagrelor
[10] = cohorts 4, 5 and 6 (1, 3, 9 g PB2452 over 30 minutes)

Nc1ncnc2c1ncn2[C@@H]1O[C@H](COP(=O)(O)OP(=O)(O)O)[C@@H](O)[C@H]1O [ADP, adenosine diphosphate]
Inhibition of PB2452 binding to biotinylated ticagrelor [1]: No inhibition

Nc1ncnc2c1ncn2[C@@H]1O[C@H](COP(=O)(O)OP(=O)(O)OP(=O)(O)O)[C@@H](O)[C@H]1O [ATP, adenosine triphosphate]
Inhibition of PB2452 binding to biotinylated ticagrelor [1]: No inhibition

CCCSc1nc(N[C@@H]2C[C@H]2c2ccc(F)c(F)c2)c2nnn([C@@H]3C[C@H](O)[C@@H](O)[C@H]3O)c2n1 [TAM]
THETA9 final estimate; Emax2 = EXP(THETA9), Emax for relating TAM to PRU ([2]; value is natural log of Emax2): 0.0181

CCCSc1nc(N[C@@H]2C[C@H]2c2ccc(F)c(F)c2)c2nnn([C@@H]3C[C@H](OCCO)[C@@H](O)[C@H]3O)c2n1 [TICA, (1S,2S,3R,5S)-3-[7-{[(1R,2S)-2-(3,4-difluorophenyl)cyclopropyl]amino}-5-(propylthio)-3H-[1,2,3]triazolo[4,5-d]pyrimidin-3-yl]-5-(2-ydroxyethoxy)cyclopentane-1,2-diol]
Range of uncomplexed TICA expected based on the model ([3]; model-based concentration): less than 2000 nmol/L
Metabolism for TICA to TAM corresponding to fm ([3]; when no PB2452 is present): about 23%
Emax parameter relating TICA to PRU (as well as VASP and LTA) [4]: 90%
EC50 ([2]; Homo sapiens, read-out: EC50 (Emax model relating uncomplexed analyte to PD measure)): > 20000 nM
THETA1 final estimate; EC50 (nmol/L) = EXP(THETA1), EC50 for relating TICA to PRU ([2]; value is natural log of EC50 in nmol/L): 10.6

Nc1ncnc2c1ncn2[C@@H]1O[C@H](CO)[C@@H](O)[C@H]1O [adenosine]
Inhibition of PB2452 binding to biotinylated ticagrelor [1]: No inhibition

CCCC(=O)Nc1ncnc2c1ncn2[C@@H]1O[C@@H]2COP(=O)(O)O[C@H]2[C@H]1OC(=O)CCC [bucladesine]
Inhibition of PB2452 binding to biotinylated ticagrelor [1]: No inhibition

CSCCNc1nc(SCCC(F)(F)F)nc2c1ncn2[C@@H]1O[C@H](COP(=O)(O)OP(=O)(O)C(Cl)(Cl)P(=O)(O)O)[C@@H](O)[C@H]1O [cangrelor]
Inhibition of PB2452 binding to biotinylated ticagrelor [1]: No inhibition

O=C1CCc2cc(OCCCCc3nnnn3C3CCCCC3)ccc2N1 [cilostazol]
Inhibition of PB2452 binding to biotinylated ticagrelor [1]: No inhibition

NS(=O)(=O)c1cc2c(cc1Cl)NC(C1CC3C=CC1C3)NS2(=O)=O (stereo not shown) [cyclothiazide]
Inhibition of PB2452 binding to biotinylated ticagrelor [1]: No inhibition

CC1(C)C(C=C(Cl)Cl)C1C(=O)OC(C#N)c1ccc(F)c(Oc2ccccc2)c1 (stereo not shown) [cyfluthrin]
Inhibition of PB2452 binding to biotinylated ticagrelor [1]: No inhibition

CC(=O)NC[C@H]1CN(c2ccc(N3CCOCC3)c(F)c2)C(=O)O1 [linezolid]
Inhibition of PB2452 binding to biotinylated ticagrelor [1]: No inhibition

CC[C@H](C)C(=O)O[C@H]1C[C@@H](C)C=C2C=C[C@H](C)[C@H](CC[C@@H]3C[C@@H](O)CC(=O)O3)[C@H]21 [lovastatin]
Inhibition of PB2452 binding to biotinylated ticagrelor [1]: No inhibition

COC(=O)C1=C(C#N)NC(C)=C(C(=O)OC(C)C)C1c1cccc([N+](=O)[O-])c1 (stereo not shown) [nilvadipine]
Inhibition of PB2452 binding to biotinylated ticagrelor [1]: No inhibition

CNC(=O)c1cnn(-c2nc(N)c3ncn([C@@H]4O[C@H](CO)[C@@H](O)[C@H]4O)c3n2)c1 [regadenoson]
Inhibition of PB2452 binding to biotinylated ticagrelor [1]: No inhibition

B1: PB2452: recombinant human IgG1λ monoclonal Fab antibody fragment that binds specifically to ticagrelor and TAM (antibody, listed as Homo sapiens)
heavy: QVQLQESGAEVKKPGSSVRVSCKASGGTFDSYSIHWVRQAPGQGLEWMGGIIPAFGTLSSAQDFQARVTISADKSTSTAYMELSGLRSEDTAVYYCARGSFDYYFWSASHPPNDALAIWGQGTLVTVSSASTKGPSVFPLAPSSKSTSGGTAALGCLVKDYFPEPVTVSWNSGALTSGVHTFPAVLQSSGLYSLSSVVTVPSSSLGTQTYICNVNHKPSNTKVDKRVEPKSCDK
light: QSVVTQPPSVSAAPGQKVTISCSGSNSDIGNNYVSWYQQLPGTAPKLLIYDNNKRPSGIPDRFSGSKSGTSATLAITGLQAGDEADYYCGTWLYDRAVGLFGGGTKVTVLGQPKAAPSVTLFPPSSEELQANKATLVCLISDFYPGAVTVAWKADSSPVKAGVETTTPSKQSNNKYAASSYLSLTPEQWKSHRSYSCQVTHEGSTVEKTVAPTECS
modifications: PB2452 VH with CH1; PB2452 VL with CL
THETA6 final estimate; Emaxf = EXP(THETA6), Emax for relating metabolism of TICA to PB2452 concentrations [5]: 2.98
Time for which complete reversal was sustained [6, 9]: 20 to 24 h
Time from infusion onset to complete reversal of the antiplatelet effects of ticagrelor [6, 9]: ≤ 5 min
Effect of higher dose and prolonged infusion on PRU ([6]; cohort 7 and those that followed (18 g, bolus plus prolonged infusion)): prolonged the increase in PRU
Effect on PRU after cessation of infusion ([6]; cohort 7 and those that followed, despite dose escalation): unexpected loss of effect was observed post-cessation of the drug infusion
Duration of early effect on PRU before return to post-TICA levels [6, 10]: less than two
Early effect on PRU [6, 10]: the PRU values were increased close to values before TICA was administered
THETA4 final estimate; Ktr (hr^−1) = EXP(THETA4 + THETA13*(LOG(WT) − 4.35)) ([3]; value is natural log of Ktr, rate at which PB2452-TICA and PB2452-TAM complexes move through the added compartments): −1.22
Kd [7]: 0.018 nM
Central volume of distribution ([8]; IV, Cohorts 1-3): 2.86 L
Clearance ([8]; IV, Cohorts 1-3): 1.88 L/h
Half-life for the distribution phase ([8]; IV, Cohorts 1-3): 0.81 h
Half-life for the elimination phase ([8]; IV, Cohorts 1-3): 6.68 h
THETA3 final estimate; Q (L/hr) = EXP(THETA3) ([8]; value is natural log of Q in L/hr): −0.770
THETA2 final estimate; V1 (L) = EXP(THETA2) ([8]; value is natural log of V1 in L): 1.05
THETA4 final estimate; V2 (L) = EXP(THETA4) ([8]; value is natural log of V2 in L): 1.24

From patent publication US20230192895A1, “PHARMACOKINETIC & PHARMACODYNAMIC MODEL FOR DETERMINING EFFECTIVE DOSE OF ANTI-TICAGRELOR ANTIBODY” (PhaseBio Pharmaceuticals, Inc., priority 2021, published 2023)
